Results from patent US6413960B1, “Substituted pyrazolyl benzenesulfonamides for the treatment of asthma” (G.D. Searle & Co., priority 1993, dated 2002).
Like-named read-outs stand apart in the source and are kept apart here.

Legend:
[1] = molecular target: T1, Human COX II (Homo sapiens, UniProt P35354); assay: Assay for COX II activity in vitro (PGE2 ELISA, recombinant enzyme); format: biochemical; settings: read-out: Human COX II ID50
T1 construct: A 2.0 kb fragment containing the coding region of either human or murine COX-I or human or murine COX-II; made in house; host or cells: SF9 insect cells (baculovirus, transfer vector pVL1393)
T1 sequence (P35354 18-604): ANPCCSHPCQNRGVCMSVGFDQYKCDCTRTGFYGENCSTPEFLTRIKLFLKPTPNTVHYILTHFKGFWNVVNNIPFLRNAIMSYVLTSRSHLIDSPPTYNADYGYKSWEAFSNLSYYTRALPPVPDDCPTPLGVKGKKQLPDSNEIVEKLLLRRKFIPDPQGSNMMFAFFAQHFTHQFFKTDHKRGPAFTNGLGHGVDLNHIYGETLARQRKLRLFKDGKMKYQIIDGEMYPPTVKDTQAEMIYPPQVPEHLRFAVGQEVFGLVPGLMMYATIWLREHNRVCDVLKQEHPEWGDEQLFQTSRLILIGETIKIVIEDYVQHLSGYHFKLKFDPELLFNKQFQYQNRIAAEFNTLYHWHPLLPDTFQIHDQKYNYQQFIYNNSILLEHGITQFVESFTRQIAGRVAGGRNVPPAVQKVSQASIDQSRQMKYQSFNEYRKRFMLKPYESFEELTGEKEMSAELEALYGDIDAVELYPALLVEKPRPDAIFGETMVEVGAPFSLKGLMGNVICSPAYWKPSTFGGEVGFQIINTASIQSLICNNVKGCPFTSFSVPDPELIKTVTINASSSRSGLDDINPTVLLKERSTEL
Description: The COX II inhibition activity of the compounds of this invention illustrated in the Examples was determined by the following methods.

[2] = molecular target: T2, Human COX I (Homo sapiens, UniProt P23219); assay: Assay for COX I activity in vitro (PGE2 ELISA, recombinant enzyme); format: biochemical
T2 construct: A 2.0 kb fragment containing the coding region of either human or murine COX-I or human or murine COX-II; made in house; host or cells: SF9 insect cells (baculovirus, transfer vector pVL1393)

[3] = tested on: Male Sprague-Dawley rats (carrageenan foot edema); settings: oral, foot volume 3 h after carrageenan; for RAT PAW EDEMA % Inhibition (* Assay performed at 30 mg/kg body weight): 30 mg/kg body weight (values marked *)
Description: Rat Carrageenan Foot Pad Edema Test
Male Sprague-Dawley rats were selected in each group so that the average body weight was as close as possible. Rats were fasted with free access to water for over sixteen hours prior to the test. […] One hour later a subplantar injection of 0.1 mL of 1% solution of carrageenan/sterile 0.9% saline was administered and the volume of the injected foot was measured with a displacement plethysmometer connected to a pressure transducer with a digital indicator. Three hours after the injection of the carrageenan, the volume of the foot was again measured.

T2 sequence (P23219 24-599): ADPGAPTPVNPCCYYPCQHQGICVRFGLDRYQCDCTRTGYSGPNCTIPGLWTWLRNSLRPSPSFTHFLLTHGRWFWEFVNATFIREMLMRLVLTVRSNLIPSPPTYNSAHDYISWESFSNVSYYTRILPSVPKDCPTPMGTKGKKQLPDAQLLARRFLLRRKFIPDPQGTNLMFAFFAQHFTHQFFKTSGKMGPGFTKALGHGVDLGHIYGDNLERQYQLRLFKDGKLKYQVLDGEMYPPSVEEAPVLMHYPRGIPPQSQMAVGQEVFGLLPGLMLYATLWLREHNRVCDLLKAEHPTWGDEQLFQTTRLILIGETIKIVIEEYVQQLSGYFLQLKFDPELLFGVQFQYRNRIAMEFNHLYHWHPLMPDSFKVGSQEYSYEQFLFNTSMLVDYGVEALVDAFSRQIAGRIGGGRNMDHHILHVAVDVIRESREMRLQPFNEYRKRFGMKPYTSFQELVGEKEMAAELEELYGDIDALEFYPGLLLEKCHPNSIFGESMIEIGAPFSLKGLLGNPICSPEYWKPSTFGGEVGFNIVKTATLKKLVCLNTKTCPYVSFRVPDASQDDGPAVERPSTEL

| SMILES | melting point | IC50 [1] [µM] | further results |
| --- | --- | --- | --- |
| NS(=O)(=O)c1ccc(-n2nc(C=NOCc3ccccc3)cc2-c2ccc(Cl)cc2)cc1 [Example 177, 4-[5-(4-Chlorophenyl)-3-[[(phenylmethoxy)imino]methyl]-1H-pyrazol-1-yl]benzenesulfonamide] | 158 to 159 °C | – | – |
| CCOC(=O)c1cc(-c2ccc(Cl)cc2)n(-c2ccc(S(N)(=O)=O)cc2)n1 [Example 86, Ethyl [1-(4-aminosulfonylphenyl)-5-(4-chlorophenyl)-1H-pyrazole-3-yl]carboxylate] | – | 0.5 | – |
| CN(C)C=NS(=O)(=O)c1ccc(-n2nc(C#N)c(Cl)c2-c2ccc(F)cc2)cc1 [Example 259] | – | 1.1 | – |
| COC(=O)c1cc(-c2cc(F)c(OC)c(F)c2)n(-c2ccc(S(N)(=O)=O)cc2)n1 [Example 84, Methyl 1-(4-aminosulfonylphenyl)-5-(3,5-difluoro-4-methoxyphenyl)-1-H-pyrazole-3-carboxylate] | – | < 0.1 | IC50 ([2]; read-out: Human COX I ID50): 65.5 µM |
| CCOC(=O)C(C#N)=Cc1cc(-c2ccccc2)n(-c2ccc(S(N)(=O)=O)cc2)n1 [Example 176, Ethyl 3-[1-[4-(aminosulfonyl)phenyl]-5-phenyl-1H-pyrazol-3-yl]-2-cyano-2-propenoate] | – | 0.3 | – |
| Cc1c(-c2cc(C(F)(F)F)nn2-c2ccc(S(N)(=O)=O)cc2)ccc2c1OCO2 [Example 138, 4-[5-(4-methyl-1,3-benzodioxol-5-yl)-3-(trifluoromethyl)-1H-pyrazol-1-yl]benzenesulfonamide] | – | 0.6 | IC50 ([2]; read-out: Human COX I ID50): < 0.1 µM |
| NS(=O)(=O)c1ccc(-n2nc(CCC(=O)O)cc2-c2ccc(F)cc2)cc1 [Example 174] | 180 to 182 °C | 3.5 | – |
| NS(=O)(=O)c1ccc(-n2nc(C(F)F)cc2-c2ccc3c(c2)OCO3)cc1 [Example 82, 4-[5-(1,3-Benzodioxol-5-yl)-3-(difluoromethyl)-1H-pyrazol-1-yl]benzenesulfonamide] | – | – | RAT PAW EDEMA % Inhibition (* Assay performed at 30 mg/kg body weight) [3]: 22* % |
| NS(=O)(=O)c1ccc(-n2nc(CCCO)cc2-c2ccc(F)cc2)cc1 [Example 173, 4-[5-(4-Fluorophenyl)-3-(3-hydroxypropyl)-1H-pyrazol-1-yl]benzenesulfonamide] | – | 4.7 | – |
| NS(=O)(=O)c1ccc(-n2nc(C(F)F)cc2-c2cnccn2)cc1 [Example 137, 4-[5-(2-Pyrazinyl)-3-(difluoromethyl)-1H-pyrazol-1-yl]benzenesulfonamide] | 191 to 194 °C | – | – |
| C=CCc1cc(-c2cc(C(F)(F)F)nn2-c2ccc(S(N)(=O)=O)cc2)ccc1OC [Example 6, 4-[5-(3-(3-Propenyl)-4-methoxyphenyl)-3-(trifluoromethyl)-1H-pyrazol-1-yl]benzenesulfonamide] | – | – | IC50 [2]: 78.7 µM |
| NS(=O)(=O)c1ccc(-n2nc(C(=O)Nc3cccc(Cl)c3)cc2-c2ccc(F)cc2)cc1 [Example 98, N-(3-Chlorophenyl)-[1-(4-aminosulfonylphenyl)-5-(4-fluorophenyl)-1H-pyrazol-3-yl]carboxamide] | – | – | RAT PAW EDEMA % Inhibition (* Assay performed at 30 mg/kg body weight) [3]: 2* % |
| NS(=O)(=O)c1ccc(-n2nc(C(F)(F)F)c(Cl)c2-c2ccc(Cl)cc2)cc1 [Example 199, 4-[5-(4-Chlorophenyl)-3-(trifluoromethyl)-4-chloro-1H-pyrazol-1-yl]benzenesulfonamide] | – | – | RAT PAW EDEMA % Inhibition @ 10 mg/kg body weight [3]: 35% |
| COc1ccc(-c2cc(C(Cl)Cl)nn2-c2ccc(S(N)(=O)=O)cc2)cc1F [Example 130, 4-[3-(Dichloromethyl)-5-(3-fluoro-4-methoxyphenyl)-1H-pyrazol-1-yl]benzenesulfonamide] | 190 to 193 °C | 3.6 | IC50 ([2]; read-out: Human COX I ID50): 12.5 µM |
| CC(C)Cc1nn(-c2ccc(S(N)(=O)=O)cc2)c(-c2ccccc2)c1Cl [Example 205, 4-(4-Chloro-3-isobutyl-5-phenyl-1H-pyrazol-1-yl)benzenesulfonamide] | – | – | IC50 ([2]; recombinant human COX I, arachidonic acid 10 μM, PGE2 ELISA, read-out: Human COX I ID50): 2.1 µM; IC50 ([1]; recombinant human COX II, arachidonic acid 10 μM, PGE2 ELISA): < 0.1 µM |
| COC(=O)c1cc(-c2ccc(Cl)cc2)n(-c2ccc(S(N)(=O)=O)cc2)n1 [Example 85, Methyl [1-(4-aminosulfonylphenyl)-5-(4-chlorophenyl)-1H-pyrazole-3-yl]carboxylate] | 227 °C | 73.6 | – |
| N#Cc1cc(-c2ccc(F)cc2)n(-c2ccc(S(N)(=O)=O)cc2)n1 [Example 117] | – | – | RAT PAW EDEMA % Inhibition @ 10 mg/kg body weight [3]: 32% |
| NC(=O)c1cc(-c2ccc(Cl)cc2)n(-c2ccc(S(N)(=O)=O)cc2)n1 [Example 96] | 108 to 110 °C | 6.5 | – |
| COc1c(Cl)cc(-c2cc(C(F)(F)F)nn2-c2ccc(S(N)(=O)=O)cc2)cc1Cl [Example 3, 4-[5-(3,5-Dichloro-4-methoxyphenyl)-3-(trifluoromethyl)-1H-pyrazol-1-yl]benzenesulfonamide] | – | < 0.1 | – |

Second part, led by results:

| melting point | IC50 [1] [µM] | SMILES | further results |
| --- | --- | --- | --- |
| – | 4.2 | NS(=O)(=O)c1ccc(-n2nc(CCCO)cc2-c2ccccc2)cc1 [Example 172, 4-[5-Phenyl-3-(3-hydroxypropyl)-1H-pyrazol-1-yl]benzenesulfonamide] | – |
| 173 to 174 °C | 27 | NS(=O)(=O)c1ccc(-n2nc(C(F)(F)F)c(C3CC3)c2-c2ccccc2)cc1 [Example 203, 4-[4-Cyclopropyl-5-phenyl-3-(trifluoromethyl)-1H-pyrazol-1-yl]benzenesulfonamide] | – |
| 135 to 136 °C | < 0.1 | CCc1c(C(F)(F)F)nn(-c2ccc(S(N)(=O)=O)cc2)c1-c1ccc(OC)c(C)c1 [Example 202, 4-[4-Ethyl-5-(3-methyl-4-methoxyphenyl)-3-(trifluoromethyl)-1H-pyrazol-1-yl]benzenesulfonamide] | IC50 ([2]; read-out: Human COX I ID50): 91 µM |
| – | 37.7 | COc1ccc(-c2cc(C(F)(F)F)nn2-c2ccc(S(N)(=O)=O)cc2)cc1CC1CC1 [Example 8, 4-[5-(3-Cyclopropylmethyl-4-methoxyphenyl)-3-(trifluoromethyl)-1H-pyrazol-1-yl]benzenesulfonamide] | – |
| 257 to 258 °C | – | NS(=O)(=O)c1ccc(-n2nc(C(F)(F)F)c3c2-c2ccccc2CC3)cc1 [Example 187, 4-[4,5-Dihydro-3-(trifluoromethyl)-1H-benz[g]indazol-1-yl]benzenesulfonamide] | – |
| 288 to 290 °C | 0.6 | NS(=O)(=O)c1ccc(-n2nc(C(F)(F)F)c3c2-c2ccsc2CC3)cc1 [Example 196, 4-[4,5-Dihydro-3-(trifluoromethyl)-1-H-thieno[3,2-g]indazol-1-yl]benzenesulfonamide] | IC50 ([2]; read-out: Human COX I ID50): 4.1 µM |
| – | 1.1 | CN(C)C=NS(=O)(=O)c1ccc(-n2nc(C#N)c(Br)c2-c2ccccc2)cc1 [Example 260, 4-[4-Bromo-3-cyano-5-phenyl-1H-pyrazol-1-yl]-N-[(dimethylamino)methylene]benzenesulfonamide] | – |
| 130 to 133 °C | < 0.1 | NS(=O)(=O)c1ccc(-n2nc(C(F)(F)Cl)cc2-c2ccc(Cl)cc2)cc1 [Example 129, 4-[5-(4-Chlorophenyl)-3-(chloro-difluoromethyl)-1H-pyrazol-1-yl]benzenesulfonamide] | IC50 ([2]; read-out: Human COX I ID50): 13.5 µM; RAT PAW EDEMA % Inhibition (* Assay performed at 30 mg/kg body weight) [3]: 47* % |
| 215 to 218 °C | – | Cc1ccc2c(c1)CCc1c(C(F)(F)F)nn(-c3ccc(S(N)(=O)=O)cc3)c1-2 [Example 188, 4-[4,5-Dihydro-7-methyl-3-(trifluoromethyl)-1H-benz[g]indazol-1-yl]benzenesulfonamide] | IC50 ([2]; read-out: Human COX I ID50): 19.8 µM |
| 145 to 146 °C | < 0.1 | Cc1c(C(F)(F)F)nn(-c2ccc(S(N)(=O)=O)cc2)c1-c1ccccc1 [Example 201, 4-[4-Methyl-5-phenyl-3-(trifluoromethyl)-1H-pyrazol-1-yl]benzenesulfonamide] | IC50 ([2]; read-out: Human COX I ID50): 2.2 µM |
| – | 6.7 | NS(=O)(=O)c1ccc(-n2nc(C(F)(F)F)c(CO)c2-c2ccccc2)cc1 [Example 204, 4-[4-hydroxymethyl-5-phenyl-3-(trifluoromethyl)-1H-pyrazol-1-yl]benzenesulfonamide] | – |
| – | 14 | CCCc1cc(-c2cc(C(F)(F)F)nn2-c2ccc(S(N)(=O)=O)cc2)ccc1OC [Example 7, 4-[5-(3-Propyl-4-methoxyphenyl)-3-(trifluoromethyl)-1H-pyrazol-1-yl]benzenesulfonamide] | – |
| 168 to 171 °C (dec.) | – | NS(=O)(=O)c1ccc(-n2ncc(Cl)c2-c2ccc(Cl)cc2)cc1 [Example 197, 4-[5-(4-Chlorophenyl)-4-chloro-1H-pyrazol-1-yl]benzenesulfonamide] | RAT PAW EDEMA % Inhibition (* Assay performed at 30 mg/kg body weight) [3]: 45* % |
